From patent publication US20110173718A1, “HERBICIDE TOLERANT PLANTS” (SYNGENTA CROP PROTECTION, INC., priority 2008, published 2011)

Tests used:
weeds [1] = experiment: Glasshouse weed control, HST inhibitors alone and with A22, pre-emergence; type: in vivo; conditions: 336 h, 14 DAT; for pest or weed control at 15.625 g/ha: HST inhibitor rate 15.625 g/ha; for pest or weed control at 62.5 g/ha: HST inhibitor rate 62.5 g/ha; for pest or weed control at 250 g/ha: HST inhibitor rate 250 g/ha
In short: (§1)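 Weeds grown in glasshouse trays (24-27 C day, 18-21 C night, ~15 h photoperiod) and track-sprayed in 0.2% X77 at […], pre-emergence or post-emergence at about 7-12 d. HPPD inhibitor A22 applied at 2 g/ha alone or mixed with HST herbicides. Damage scored 0–100% at 14 DAT; synergy calculated by Colby formula.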

weeds [2] = experiment: Glasshouse weed control, HST inhibitors alone and with A22, post-emergence; type: in vivo; conditions: 336 h, 14 DAT, single replicate, read-out: % control score, Obs; for pest or weed control at 15.625 g/ha: 15.625 g/ha alone; for pest or weed control at 62.5 g/ha: 62.5 g/ha alone; for pest or weed control at 250 g/ha: 250 g/ha alone
In short: as §1

Arabidopsis HST = molecular target: T1, Arabidopsis HST (Arabidopsis thaliana, UniProt Q1ACB3); experiment: HST total extraction (non TLC) assay, recombinant Arabidopsis HST from insect cells; type: biochemical
T1 construct: GST (factor Xa cleavage site) (N); made in house; host or cells: Sf9 insect cells (baculovirus, pAcG3X), membrane fraction
T1 sequence (Q1ACB3 70-386): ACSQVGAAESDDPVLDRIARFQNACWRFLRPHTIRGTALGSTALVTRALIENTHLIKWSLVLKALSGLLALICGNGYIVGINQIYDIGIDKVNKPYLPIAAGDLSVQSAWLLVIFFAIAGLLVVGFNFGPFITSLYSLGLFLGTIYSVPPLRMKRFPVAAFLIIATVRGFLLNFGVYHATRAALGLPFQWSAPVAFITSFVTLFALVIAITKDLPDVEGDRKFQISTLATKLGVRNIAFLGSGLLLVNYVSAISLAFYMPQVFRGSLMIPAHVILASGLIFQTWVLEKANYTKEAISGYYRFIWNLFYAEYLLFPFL

[3] = BRAPL, read-out: BRAPL Obs, % control score
[4] = PANMI, read-out: PANMI Obs, % control score
[5] = SIDSP, read-out: SIDSP Obs, % control score
[6] = Digitaria sanguinalis, DIGSA, read-out: DIGSA Obs, % control score
[7] = Echinochloa crus-galli, ECHCG, read-out: ECHCG Obs, % control score
[8] = Setaria faberi, SETFA, read-out: SETFA Obs, % control score

SMILES | pest or weed control at 15.625 g/ha (weeds [1]; [3]) [%] | pest or weed control at 62.5 g/ha (weeds [1]; [3]) [%] | pest or weed control at 250 g/ha (weeds [1]; [3]) [%] | pest or weed control at 15.625 g/ha (weeds [1]; [4]) [%] | pest or weed control at 62.5 g/ha (weeds [1]; [4]) [%] | pest or weed control at 250 g/ha (weeds [1]; [4]) [%] | pest or weed control at 15.625 g/ha (weeds [1]; [5]) [%] | pest or weed control at 62.5 g/ha (weeds [1]; [5]) [%] | pest or weed control at 250 g/ha (weeds [1]; [5]) [%] | pest or weed control at 15.625 g/ha (weeds [1]; [6]) [%] | pest or weed control at 62.5 g/ha (weeds [1]; [6]) [%] | pest or weed control at 250 g/ha (weeds [1]; [6]) [%] | pest or weed control at 15.625 g/ha (weeds [1]; [7]) [%] | pest or weed control at 62.5 g/ha (weeds [1]; [7]) [%] | pest or weed control at 250 g/ha (weeds [1]; [7]) [%] | pest or weed control at 15.625 g/ha (weeds [1]; [8]) [%] | pest or weed control at 62.5 g/ha (weeds [1]; [8]) [%] | pest or weed control at 250 g/ha (weeds [1]; [8]) [%] | pest or weed control at 15.625 g/ha (weeds [2]; BRAPL) [%] | pest or weed control at 62.5 g/ha (weeds [2]; BRAPL) [%] | also measured
O=c1c(-c2cc(Cl)ccc2C(F)(F)F)c(O)c2nccnc2n1CC(F)F [Compound 2.19] | 0 | 10 | 40 | 0 | 0 | 60 | 0 | 2 | 10 | 0 | 0 | 20 | 0 | 50 | 90 | 0 | 5 | 60 | 20 | 70 | pest or weed control at 250 g/ha (weeds [2]; BRAPL): 80%; pest or weed control at 15.625 g/ha (weeds [2]; PANMI): 40%; pest or weed control at 62.5 g/ha (weeds [2]; PANMI): 70%; pest or weed control at 250 g/ha (weeds [2]; PANMI): 85%; pest or weed control at 15.625 g/ha (weeds [2]; SIDSP): 15%; pest or weed control at 62.5 g/ha (weeds [2]; SIDSP): 30%; pest or weed control at 250 g/ha (weeds [2]; SIDSP): 50%; pest or weed control at 15.625 g/ha (weeds [2]; Digitaria sanguinalis, DIGSA): 30%; pest or weed control at 62.5 g/ha (weeds [2]; Digitaria sanguinalis, DIGSA): 50%; pest or weed control at 250 g/ha (weeds [2]; Digitaria sanguinalis, DIGSA): 70%; pest or weed control at 15.625 g/ha (weeds [2]; Echinochloa crus-galli, ECHCG): 30%; pest or weed control at 62.5 g/ha (weeds [2]; Echinochloa crus-galli, ECHCG): 45%; pest or weed control at 250 g/ha (weeds [2]; Echinochloa crus-galli, ECHCG): 75%; pest or weed control at 15.625 g/ha (weeds [2]; Setaria faberi, SETFA): 30%; pest or weed control at 62.5 g/ha (weeds [2]; Setaria faberi, SETFA): 60%; pest or weed control at 250 g/ha (weeds [2]; Setaria faberi, SETFA): 80%; Estimated IC50 (ppm) (Arabidopsis HST): 6 ppm
O=c1c(-c2c(Cl)cccc2C(F)(F)F)c(O)c2nccnc2n1CC(F)F [Compound 2.20] | 0 | 10 | 60 | 0 | 2 | 30 | 0 | 0 | 5 | 0 | 0 | 20 | 1 | 15 | 90 | 0 | 20 | 65 | 30 | 50 | pest or weed control at 250 g/ha (weeds [2]; BRAPL): 95%; pest or weed control at 15.625 g/ha (weeds [2]; PANMI): 15%; pest or weed control at 62.5 g/ha (weeds [2]; PANMI): 45%; pest or weed control at 250 g/ha (weeds [2]; PANMI): 85%; pest or weed control at 15.625 g/ha (weeds [2]; SIDSP): 10%; pest or weed control at 62.5 g/ha (weeds [2]; SIDSP): 50%; pest or weed control at 250 g/ha (weeds [2]; SIDSP): 55%; pest or weed control at 15.625 g/ha (weeds [2]; Digitaria sanguinalis, DIGSA): 20%; pest or weed control at 62.5 g/ha (weeds [2]; Digitaria sanguinalis, DIGSA): 60%; pest or weed control at 250 g/ha (weeds [2]; Digitaria sanguinalis, DIGSA): 80%; pest or weed control at 15.625 g/ha (weeds [2]; Echinochloa crus-galli, ECHCG): 20%; pest or weed control at 62.5 g/ha (weeds [2]; Echinochloa crus-galli, ECHCG): 60%; pest or weed control at 250 g/ha (weeds [2]; Echinochloa crus-galli, ECHCG): 90%; pest or weed control at 15.625 g/ha (weeds [2]; Setaria faberi, SETFA): 25%; pest or weed control at 62.5 g/ha (weeds [2]; Setaria faberi, SETFA): 65%; pest or weed control at 250 g/ha (weeds [2]; Setaria faberi, SETFA): 80%; Estimated IC50 (ppm) (Arabidopsis HST): 16 ppm
O=c1c(-c2c(F)ccc(Cl)c2Cl)c(O)c2nccnc2n1CC(F)F [Compound 2.21] | 0 | 2 | 5 | 0 | 0 | 0 | 0 | 0 | 1 | 0 | 0 | 0 | 0 | 0 | 5 | 0 | 0 | 2 | 5 | 30 | pest or weed control at 250 g/ha (weeds [2]; BRAPL): 80%; pest or weed control at 15.625 g/ha (weeds [2]; PANMI): 10%; pest or weed control at 62.5 g/ha (weeds [2]; PANMI): 30%; pest or weed control at 250 g/ha (weeds [2]; PANMI): 70%; pest or weed control at 15.625 g/ha (weeds [2]; SIDSP): 5%; pest or weed control at 62.5 g/ha (weeds [2]; SIDSP): 20%; pest or weed control at 250 g/ha (weeds [2]; SIDSP): 40%; pest or weed control at 15.625 g/ha (weeds [2]; Digitaria sanguinalis, DIGSA): 0%; pest or weed control at 62.5 g/ha (weeds [2]; Digitaria sanguinalis, DIGSA): 10%; pest or weed control at 250 g/ha (weeds [2]; Digitaria sanguinalis, DIGSA): 20%; pest or weed control at 15.625 g/ha (weeds [2]; Echinochloa crus-galli, ECHCG): 0%; pest or weed control at 62.5 g/ha (weeds [2]; Echinochloa crus-galli, ECHCG): 10%; pest or weed control at 250 g/ha (weeds [2]; Echinochloa crus-galli, ECHCG): 40%; pest or weed control at 15.625 g/ha (weeds [2]; Setaria faberi, SETFA): 2%; pest or weed control at 62.5 g/ha (weeds [2]; Setaria faberi, SETFA): 20%; pest or weed control at 250 g/ha (weeds [2]; Setaria faberi, SETFA): 60%; Estimated IC50 (ppm) (Arabidopsis HST): 64 ppm
